# Publication PMC9171646 (Proceedings of the National Academy of Sciences of the …, 2022)
# “Also recorded” adds a separate entry of the source.
# Legend:
# [1] = tested on: EF-G-bound translocating 70S ribosome; assay: Presteady-state smFRET imaging of translocation; format: biochemical, E. coli; conditions: for Final state after prolonged stalling: 400 ms time resolution, extended imaging (Fig. S4A); for Effect on translocation: EF-G(GTP) delivered with 10 µM drug to PRE ribosomes, 25 °C; for Affinity for ribosome-bound EF-G vs EF-G in solution: inferred from smFRET with EF-G in excess
# EF-G(GDP)-ribosome INT2 = conditions: cited from earlier work
# EF-G = conditions: cited from earlier work
# eEF2 = conditions: cited from earlier work
# [2] = tested on: E. coli EF-G-70S ribosome; assay: Cryo-EM structure of EF-G-ArgB-70S complex; format: binding
# [3] = tested on: EF-G-ribosome translocation intermediate (INT2); assay: Presteady-state cryo-EM structure of EF-G-ArgB-INT2 translocation intermediate; format: binding, E. coli
# P. aeruginosa EF-G1 = conditions: cited from earlier work
# Pseudomonas aeruginosa = conditions: cited from earlier work
# [4] = tested on: EF-G from P. aeruginosa (EF-G1); conditions: free P. aeruginosa EF-G1; cited from earlier work
Compound,Final state after prolonged stalling [1],Effect on translocation [1],Binding site on EF-G (EF-G(GDP)-ribosome INT2),Resistance by EF-G mutations (EF-G),Binding site on eEF2 (eEF2),"Inhibition of ribosomes with EF-G in excess ([1]; EF-G in fivefold excess over ArgB (10 µM ArgB, 50 µM EF-G))",Affinity for ribosome-bound EF-G vs EF-G in solution [1],Affinity for ribosome-bound EF-G vs EF-G in solution ([1]; listed as Argyrin B),"Binding site on EF-G ([2]; 50 µM ArgB, 0.4 µM 70S, 1 µM EF-G, 500 µM GTP)","State in which EF-G is trapped ([2]; nucleotide density compatible with GDP, switch-I disordered)","Binding site on EF-G in translocation intermediate ([3]; 10 µM ArgB, 5 µM EF-G, 1 mM GTP)","Contacts of ArgB in EF-G binding pocket ([3]; EF-G-ArgB-INT2, E. coli numbering)",Resistance by mutation of Pro414 (P. aeruginosa EF-G1; ArgB-resistant strains),Resistance by Thr671Ala (E. coli Thr668) (P. aeruginosa EF-G1; P. aeruginosa EF-G1 domain V),Antimicrobial activity against P. aeruginosa (Pseudomonas aeruginosa),"Direct binding to EF-G1, binding site [4]"
"CC(=O)O[C@H]1C[C@@]2(C)[C@@H](C[C@@H](O)[C@H]3[C@@]4(C)CC[C@@H](O)[C@@H](C)[C@@H]4CC[C@@]32C)/C1=C(\CCC=C(C)C)C(=O)O [FA, fusidic acid, reference compound]",eventually reached an EF-G-bound drug-stalled POST state after prolonged stalling,prolonged stalls during late steps of translocation,between domains I and III,mutations in EF-G have been reported to confer FA resistance,–,–,–,–,–,–,–,–,–,–,–,–
CO[C@H]1[C@@H](O)[C@H](O)[C@H](OC[C@@]23C[C@@H]4[C@H](C)CC[C@H]4[C@@]4(C=O)CC2C=C(C(C)C)[C@@]34C(=O)O)O[C@@H]1C [Sordarin],–,–,–,–,binds between domains III and V of eEF2,–,–,–,–,–,–,–,–,–,–,–
argyrin B [ArgB],eventually reached an EF-G-bound drug-stalled POST state after prolonged stalling,prolonged stalls during late steps of translocation,–,–,–,all ribosomes were inhibited,preferentially binds with high affinity to EF-G when it is bound to the ribosome; also recorded: lower affinity for EF-G in solution than on the ribosome,"low affinity toward EF-G off the ribosome, but high affinity to EF-G bound to the ribosome",between domain III and V of EF-G,traps EF-G on the ribosome after GTP hydrolysis and Pi release,in the junction between EF-G domains III and V,"van der Waals interactions with Met617, Leu660, and Met682 within domain V of EF-G and the backbone amide of Ala489 of EF-G was positioned within hydrogen bonding distance to the Sarcosine moiety",commonly mutated in ArgB-resistant strains,resistance to ArgB,at the forefront,bind directly to EF-G from P. aeruginosa (EF-G1) with the binding site located between domains III and V
